Reference: US8129557B2, “Phosphonic acid diester derivative and method for producing thereof” (priority 2005, dated 2012)
Marks after values point to notes of the source that are not given here.

Key:
human GGT = molecular target: T1, human GGT (Homo sapiens, UniProt P19440); assay: Second-order rate constant kon of human GGT inactivation (continuous or discontinuous assay); format: biochemical; settings: for kon Human GGT: second-order rate constant for enzyme inactivation, pH 5.5, 25° C.; for plot of log kon (human GGT) against pKa of aryl group, FIG. 4: position relative to the straight line
T1 construct: purchased Asahi Kasei Co., Ltd. HC-GTP (lot 603AA)
T1 sequence (P19440 1-380 limits assumed): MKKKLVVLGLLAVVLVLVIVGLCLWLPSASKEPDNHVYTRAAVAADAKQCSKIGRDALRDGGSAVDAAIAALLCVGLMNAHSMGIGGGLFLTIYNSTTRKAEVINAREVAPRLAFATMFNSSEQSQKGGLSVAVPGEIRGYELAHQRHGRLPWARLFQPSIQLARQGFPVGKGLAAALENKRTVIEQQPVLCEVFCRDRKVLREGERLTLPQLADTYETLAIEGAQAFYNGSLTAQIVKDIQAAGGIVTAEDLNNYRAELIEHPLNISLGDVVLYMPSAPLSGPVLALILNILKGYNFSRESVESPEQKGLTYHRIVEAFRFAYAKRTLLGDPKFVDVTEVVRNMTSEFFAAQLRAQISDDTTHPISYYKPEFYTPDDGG
T1 sequence (P19440 381-569 limits assumed): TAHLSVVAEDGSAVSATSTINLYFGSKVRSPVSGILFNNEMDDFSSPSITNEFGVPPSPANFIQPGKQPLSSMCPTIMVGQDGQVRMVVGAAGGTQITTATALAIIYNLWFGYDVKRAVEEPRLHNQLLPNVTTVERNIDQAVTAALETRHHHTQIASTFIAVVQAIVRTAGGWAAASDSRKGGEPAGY
Source text: (§1) Purified enzyme of E-coli GGT and crude enzyme of human GGT were employed as GGT samples for an inhibition experiment. The enzyme whose physicochemical properties are described in the Document (Hideyuki Suzuki, Hidehiko Kumagai, Tatsurokukro Tochikura “gamma-Glutamyltranspeptidase from Escherichia coli K-12: Purification and Properties” Journal of Bacteriology, December 1986, Vol. 168, No. 3, p. 1325-1331) was used as a purified enzyme of E-coli GGT. Enzyme [HC-GTP (product number), 603AA (lot number)] manufactured by Asahi Kasei Co., Ltd. was used as a crude enzyme of human GGT. The crude enzyme of human GGT contained a large amount of bovine serum albumin (BSA) to stabilize the enzyme, and the GGT concentration was 1% or lower.
In the hydrolytic assay of human GGT, the measurement was carried out in the same manner as that in the hydrolytic assay of E-coli GGT, except that the substrate concentration was changed to […] and therefore, the explanation of the common portions was omitted.
(§2) Next, a second-order rate constant for enzyme inactivation kon was measured by either a continuous assay or a discontinuous assay. Both of the continuous and discontinuous assay for measuring inhibitory activity to GGT were carried out under a pseudo-first-order reaction condition.
(§3) In the continuous assay, while the temperature was kept at 25° C., the 100 mM succinic acid-sodium hydroxide buffer solutions (pH 5.5) containing an inhibitor in various concentrations and the substrate were preincubated for equilibrium. Herein, 0.2 μM of the substrate was used for the case of E-coli GGT and 0.4 μM of the substrate was used for the case of human GGT. Thereafter, the enzyme solution of the E-coli GGT was added in a manner that the final concentration became 0.04 nM and also the human GGT crude enzyme solution was added in a manner that the final concentration became 5 μg/mL. Accordingly, the reaction was started and the release of AMC (increase of the fluorescence intensity) was continuously traced for 10 minutes.
(§4) The fluorescence intensity data obtained from the respective curves was applied to the following pseudo-first-order rate equation (2) and the observed pseudo-first-order rate constant for enzyme inactivation (kobs) was calculated by nonlinear regression analysis [Stein, R. L. et al. Biochemistry 26, 2682-2689 (1987)].
(§5) [Equation 2] [P]=[P]∞[1−exp(−kobst)] (2)
(§6) When the kobs was plotted against to the inhibitor concentration ([I]), a linear relation was obtained until the maximum extent of the experimentally possible inhibitor concentration. Therefore, the second-order rate constant for enzyme inactivation kon was calculated using the following equation (3) deduced from the kinetic mechanism.
(§7) [drawing 37] [Equation 3] kobs=kon[I]/(1+[S]/Km) (3)
(§8) Herein, S denotes 7-(γ-L-glutamylamino)-4-methylcoumarin. The substrate concentration [S] for E-coli GGT is 0.2 μM and the Km value is 0.2 μM. […] The kinetic data was obtained by nonlinear regression analysis using Kaleida graph, a program produced by Synergy Software.
Further, in the discontinuous assay, an inhibitor in various concentrations was dissolved in 100 mM succinic acid-sodium hydroxide buffer solution (pH 5.5) and the enzyme solution was added to the resulting buffer solutions. Herein, in the case of E-coli GGT, the enzyme solution was added in a manner that the final concentration became 0.4 nM and also the human GGT crude enzyme solution was added in a manner that the final concentration became 0.5 mg/mL. Accordingly, the reaction of the inhibitor and each GGT was conducted at 25° C. An aliquot (10 μL) of each of the reaction solutions were sampled at every specified time to measure the remaining enzyme activity by the above-mentioned enzyme activation method. The remaining enzyme activity at every time was analyzed by nonlinear regression using the pseudo-first-order rate equation (4) of enzyme inactivation to calculate the value of kobs.
[Equation 4] αt/α0=exp(−kobst) (4) […]

E-coli GGT = molecular target: T2, E-coli GGT (Escherichia coli, UniProt P18956); assay: Second-order rate constant kon of E-coli GGT inactivation (continuous or discontinuous assay); format: biochemical, Escherichia coli K-12; settings: for kon E-coli GGT: second-order rate constant for enzyme inactivation, pH 5.5, 25° C.
T2 construct: was used as a purified enzyme of E-coli GGT; made in house
T2 sequence (P18956 26-390 limits assumed): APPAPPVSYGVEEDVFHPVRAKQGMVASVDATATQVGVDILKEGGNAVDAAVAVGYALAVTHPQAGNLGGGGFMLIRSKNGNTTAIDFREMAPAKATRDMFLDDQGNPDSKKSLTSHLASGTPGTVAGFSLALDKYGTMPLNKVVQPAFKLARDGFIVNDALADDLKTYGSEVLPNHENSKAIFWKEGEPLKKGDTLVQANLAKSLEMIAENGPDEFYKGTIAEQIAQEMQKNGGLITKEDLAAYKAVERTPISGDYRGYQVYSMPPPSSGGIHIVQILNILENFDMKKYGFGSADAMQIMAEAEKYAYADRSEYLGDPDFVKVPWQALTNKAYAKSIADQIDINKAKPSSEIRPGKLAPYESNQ
T2 sequence (P18956 391-580 limits assumed): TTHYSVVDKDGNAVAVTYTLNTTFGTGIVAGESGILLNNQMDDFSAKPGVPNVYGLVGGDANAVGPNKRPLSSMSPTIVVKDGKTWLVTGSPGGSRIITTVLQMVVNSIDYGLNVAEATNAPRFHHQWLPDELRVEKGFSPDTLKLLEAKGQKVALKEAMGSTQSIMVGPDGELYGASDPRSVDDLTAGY
Source text: as §1
In the hydrolytic assay of E. coli GGT, 10 μL of a […] enzyme solution was added to a 100 mM succinic acid-sodium hydroxide buffer solution (pH 5.5) in a total volume of 1 mL containing 100 μL of 2 μM substrate aqueous solution. The product, 7-amino-4-methylcoumarin (AMC), released along with the enzyme reaction was traced continuously at 25° C. using a fluorospectrophotometer F-2000 manufactured by Hitachi Ltd. (excitation wavelength: 350 nm, emission wavelength: 440 nm). The AMC concentration was separately measured by forming a calibration curve showing the relation of the fluorescence intensity (F) and the concentration (C) using standard solutions and was calculated from the relational expression (1) of the fluorescence intensity alteration (ΔF) and concentration alteration (ΔC).
as §2, §3, §4, §5, §6, §7, §8
Further, in the discontinuous assay, an inhibitor in various concentrations was dissolved in 100 mM succinic acid-sodium hydroxide buffer solution (pH 5.5) and the enzyme solution was added to the resulting buffer solutions. […]

[1] = Chemical stability: hydrolysis ratio after storage in water at room temperature; format: physicochemical
Method: Herein, the hydrolysis ratios of the reactive compounds of Examples 1 to 11 were measured after the respective compounds were stored in water at room temperature. In this connection, the compounds other than the compound of Example 10 were stored in water for 12 hours and the compound of Example 10 was stored in water for 112 hours.

[2] = Hydrolysis ratio of Example 7 in alkaline, neutral or acidic solvent; format: physicochemical; settings: for Hydrolysis ratio (%): after 12 hours
Method: Herein, the compound of Example 7 was dissolved in a solvent shown in Table 4 and kept at 23.5° C., and the hydrolysis ratio of the compound of Example 7 was measured after 12 hours.

[3] = stored in water at room temperature for 12 hours

SMILES | kon Human GGT (human GGT) | kon E-coli GGT (E-coli GGT) | Hydrolysis ratio (%) [1, 3] | further results
N[C@H](C(=O)O)[C@@H]1CC(Cl)=NO1 [Comparative Example 1, (aS, 5S)-acivicin, reference compound] | 0.40 ± 0.02 M^−1S^−1 | 4210 ± 10 M^−1S^−1 | – | –
COP(=O)(CCC(N)C(=O)O)Oc1ccc(C)cc1 (stereo not shown) [Example 1, 2-amino-4-[methyl(4-methylphenyl)phosphono]butanoic Acid] | 0.24 M^−1S^−1 | 23 M^−1S^−1 | 0% | –
COc1ccc(OP(=O)(CCC(N)C(=O)O)OC)cc1 (stereo not shown) [Example 2, 2-amino-4-[(4-methoxyphenyl)(methyl)phosphono]butanoic Acid] | 0.16 M^−1S^−1 | 19.5 M^−1S^−1 | 0% | –
COP(=O)(CCC(N)C(=O)O)Oc1ccccc1 (stereo not shown) [Example 3, 2-amino-4-[methyl(phenyl)phosphono]butanoic Acid] | 0.40 M^−1S^−1 | 115 M^−1S^−1 | 0% | –
COP(=O)(CCC(N)C(=O)O)Oc1ccc(Cl)cc1 (stereo not shown) [Example 4, 2-amino-4-[(4-chlorophenyl)(methyl)phosphono]butanoic Acid] | 5.0 M^−1S^−1 | 607 M^−1S^−1 | 0% | –
COP(=O)(CCC(N)C(=O)O)Oc1ccc(C(F)(F)F)cc1 (stereo not shown) [Example 5, 2-amino-4-[methyl(4-trifluoromethylphenyl)phosphono]butanoic acid] | 11.5 M^−1S^−1 | 2800 M^−1S^−1 | 0% | –
COP(=O)(CCC(N)C(=O)O)Oc1ccc(C#N)cc1 (stereo not shown) [Example 6, 2-amino-4-[(4-cyanophenyl)(methyl)phosphono]butanoic Acid] | 45.9 M^−1S^−1 | 12000 M^−1S^−1 | 12.3% | –
COP(=O)(CCC(N)C(=O)O)Oc1ccc([N+](=O)[O-])cc1 (stereo not shown) [Example 7, 2-amino-4-[methyl(4-nitrophenyl)phosphono]butanoic Acid] | 125.1 M^−1S^−1 | 35000 M^−1S^−1 | 48.6% | Hydrolysis ratio (%) ([2]; 0.1 N CF3COOD, pH <1, 23.5° C.): 0%; Hydrolysis ratio (%) ([2]; 0.1 N CH3COOD, pH 2.9, 23.5° C.): 40%; Hydrolysis ratio (%) ([2]; 0.1 N DCl + MeOH, pH <1, 23.5° C.): 0%; Hydrolysis ratio (%) ([2]; 0.1 N DCl, pH <1, 23.5° C.): 0%; Hydrolysis ratio (%) ([2]; 0.1 N Na2CO3, pH 11.6, 23.5° C.): 100%; Hydrolysis ratio (%) ([2]; 0.1 N NaHCO3, pH 8.3, 23.5° C.): 100%; Hydrolysis ratio (%) ([2]; D2O, pH 7, 23.5° C.): 49%; hydrolysis ratio in words ([2]; under the acidic condition): low; hydrolysis ratio in words ([2]; under the alkaline condition): high
COP(=O)(CCC(N)C(=O)O)Oc1ccc2c(C)cc(=O)oc2c1 (stereo not shown) [Example 8, 2-amino-4-[methyl(4-methylumbelliferyl)phosphono]butanoic Acid] | 2400 M^−1S^−1 | 15700 M^−1S^−1 | 6.0% | mode of inhibition of human GGT (activity plot, FIG. 2) (human GGT; AMC fluorescence against time): irreversibly inactivate; plot of log kon (human GGT) against pKa of aryl group, FIG. 4 (human GGT): deviate upward; mode of inhibition of E-coli GGT (activity plot, FIG. 1) (E-coli GGT; AMC fluorescence against time): irreversibly inactivate
CCCCOP(=O)(CCC(N)C(=O)O)Oc1ccccc1 (stereo not shown) [Example 9, 2-amino-4-[butyl(phenyl)phosphono]butanoic Acid] | 0.023 M^−1S^−1 | 9.0 M^−1S^−1 | 0% | –
CCC(OP(=O)(CCC(N)C(=O)O)Oc1ccccc1)C(=O)NCC(=O)O (stereo not shown) [Example 10, 2-amino-4-[1-[N-(carboxymethyl)carbamoyl]propyl(phenyl)phosphono]butanoic acid] | 74.5 M^−1S^−1 | 80.9 M^−1S^−1 | – | plot of log kon (human GGT) against pKa of aryl group, FIG. 4 (human GGT): deviate upward; Hydrolysis ratio (%) ([1]; stored in water at room temperature for 112 hours): 37.5* %
COP(=O)(CCC(N)C(=O)O)Oc1ccc(CC(=O)O)cc1 (stereo not shown) [Example 12, 2-amino-4-{[4-(carboxymethyl)phenyl](methyl)phosphono}butanoic Acid] | 0.33 M^−1S^−1 | 200 M^−1S^−1 | – | –
COP(=O)(CCC(N)C(=O)O)Oc1ccc(C(=O)O)cc1 (stereo not shown) [Example 13, 2-amino-4-[4-carboxyphenyl(methyl)phosphono]butanoic Acid] | 5.2 M^−1S^−1 | 3200 M^−1S^−1 | – | –
COP(=O)(CCC(N)C(=O)O)Oc1cccc([N+](=O)[O-])c1 (stereo not shown) [Example 14, 2-amino-4-[methyl(3-nitrophenyl)phosphono]butanoic Acid] | 49 M^−1S^−1 | 5100 M^−1S^−1 | – | –
COP(=O)(CCC(N)C(=O)O)Oc1cccc(C(=O)O)c1 (stereo not shown) [Example 15, 2-amino-4-[3-carboxyphenyl(methyl)phosphono]butanoic Acid] | 1.63 M^−1S^−1 | 450 M^−1S^−1 | – | –
COP(=O)(CCC(N)C(=O)O)Oc1cccc(CCC(=O)O)c1 (stereo not shown) [Example 16, 2-amino-4-{[3-(2-carboxyethyl)phenyl](methyl)phosphono}butanoic Acid] | 7.67 M^−1S^−1 | 71 M^−1S^−1 | – | plot of log kon (human GGT) against pKa of aryl group, FIG. 4 (human GGT): deviate upward
NC(CCP(=O)(Oc1ccccc1)Oc1ccccc1)C(=O)O (stereo not shown) [Example 17, 2-amino-4-(diphenylphosphono)butanoic Acid] | 0.41 M^−1S^−1 | 28 M^−1S^−1 | – | –
